Test results published in the supplement of paper PMC10307832.

compound: O=C(NC1CCNCC1)c1n[nH]cc1NC(=O)c1c(Cl)cccc1Cl [AT-7519] + N=C(N)NC(=N)NCCc1ccccc1 [Phenformin] (partner 250 µM); test: relative viability (nuclei count vs DMSO), 5 days (fraction); higher = more cells survive; conditions: first compound 1 µM
Summary of the method: (§1)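 One day after seeding in 1536-well plates, lung cancer cell lines were dosed by pin tool. Dosing was either single-drug or a fixed anchor-drug dose plus five library-drug doses (not always all listed) in √10 steps. After 5 days, nuclei were stained in one fix-and-stain step and counted on 4× images, and relative viability is the nuclei count of treated wells over that of vehicle wells, given as the median of duplicate plates.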

First: HARA
Second: SW 900
The relative viability of the first is higher: 0.358 for the first, 0.196 for the second.

Going from HCC-78 to NCI-H1563, the relative viability falls from 0.662 to 0.651.

compound: C1=CC2=C(C=C(C(=C2N=C1)O)N=NC3=CC4=C(C=C3)C=C(C=C4)S(=O)(=O)O)S(=O)(=O)O + CC(=O)c1c(C)c2cnc(Nc3ccc(N4CCNCC4)cn3)nc2n(C2CCCC2)c1=O [Palbociclib] (partner 0.5 µM); test: as above; conditions: first compound 0.08 µM
Summary of the method: as §1

Compared with NCI-H2342, NCI-H727 is higher in relative viability: 0.576 for the first, 0.674 for the second.

Going from NCI-H1650 to NCI-H1993, the relative viability rises from 0.369 to 0.625.

Compared with SW 1573, NCI-H838 is lower in relative viability: 0.463 for the first, 0.254 for the second.

Going from LCLC-103H to NCI-H520, the relative viability falls from 0.457 to 0.247.

First: NCI-H2126
Second: EMC-BAC-2
The relative viability of the first is lower: 0.342 for the first, 0.528 for the second.

First: NCI-H2085
Second: HCC-366
The relative viability of the first is higher: 0.492 for the first, 0.459 for the second.

Going from NCI-H1666 to LK-2, the relative viability rises from 0.667 to 0.768.

Compared with NCI-H2087, SK-MES-1 is higher in relative viability: 0.238 for the first, 0.351 for the second.

Compared with H3255, COR-L23 is higher in relative viability: 0.303 for the first, 0.326 for the second.

Going from COR-L 105 to LOU-NH91, the relative viability rises from 0.391 to 0.573.

Compared with ChaGo-K-1, NCI-H2170 is lower in relative viability: 0.974 for the first, 0.469 for the second.

Going from NCI-H2405 to HOP-62, the relative viability falls from 0.517 to 0.481.

Compared with HCC-44, NCI-H522 is lower in relative viability: 1.02 for the first, 0.957 for the second.

Compared with LU99A, BEN is higher in relative viability: 0.472 for the first, 0.499 for the second.

Compared with HARA, SW 900 is higher in relative viability: 0.249 for the first, 0.53 for the second.

In the case of HCC-78, the relative viability is reported as 0.566.

same assay, conditions: first compound 0.253 µM

First: NCI-H2342
Second: NCI-H727
The relative viability of the first is lower: 0.538 for the first, 0.652 for the second.

Compared with NCI-H1650, NCI-H1993 is higher in relative viability: 0.302 for the first, 0.669 for the second.

Compared with SW 1573, NCI-H838 is lower in relative viability: 0.41 for the first, 0.216 for the second.

First: LCLC-103H
Second: NCI-H520
The relative viability of the first is higher: 0.465 for the first, 0.247 for the second.

Compared with NCI-H2126, EMC-BAC-2 is higher in relative viability: 0.363 for the first, 0.541 for the second.

Going from NCI-H2085 to HCC-366, the relative viability falls from 0.481 to 0.385.

First: NCI-H1666
Second: LK-2
The relative viability of the first is higher: 0.704 for the first, 0.529 for the second.

Going from NCI-H2087 to NCI-H1648, the relative viability rises from 0.213 to 0.29.

Going from SK-MES-1 to H3255, the relative viability falls from 0.332 to 0.313.

Compared with COR-L23, COR-L 105 is higher in relative viability: 0.346 for the first, 0.433 for the second.

Compared with LOU-NH91, ChaGo-K-1 is higher in relative viability: 0.524 for the first, 0.948 for the second.

Compared with NCI-H2170, NCI-H2405 is higher in relative viability: 0.401 for the first, 0.543 for the second.

Going from HOP-62 to HCC-44, the relative viability rises from 0.423 to 0.96.

First: NCI-H522
Second: LU99A
The relative viability of the first is higher: 0.981 for the first, 0.43 for the second.

First: BEN
Second: HARA
The relative viability of the first is higher: 0.426 for the first, 0.244 for the second.

Going from SW 900 to HCC-78, the relative viability falls from 0.58 to 0.463.

same assay, conditions: first compound 0.8 µM

First: NCI-H2342
Second: NCI-H727
The relative viability of the first is lower: 0.532 for the first, 0.659 for the second.

Compared with NCI-H1650, NCI-H1993 is higher in relative viability: 0.301 for the first, 0.603 for the second.

First: SW 1573
Second: NCI-H838
The relative viability of the first is higher: 0.397 for the first, 0.227 for the second.

First: LCLC-103H
Second: NCI-H520
The relative viability of the first is higher: 0.484 for the first, 0.27 for the second.

First: NCI-H2126
Second: EMC-BAC-2
The relative viability of the first is lower: 0.359 for the first, 0.509 for the second.

Compared with NCI-H2085, HCC-366 is lower in relative viability: 0.451 for the first, 0.377 for the second.

NCI-H1666 and LK-2 are the same in relative viability: 0.626 for the first, 0.626 for the second.

Going from NCI-H2087 to SK-MES-1, the relative viability rises from 0.199 to 0.34.

Compared with H3255, COR-L23 is lower in relative viability: 0.334 for the first, 0.274 for the second.

Going from COR-L 105 to LOU-NH91, the relative viability rises from 0.449 to 0.503.

First: ChaGo-K-1
Second: NCI-H2170
The relative viability of the first is higher: 0.931 for the first, 0.393 for the second.

Going from NCI-H2405 to HOP-62, the relative viability falls from 0.504 to 0.42.

First: HCC-44
Second: NCI-H522
The relative viability of the first is higher: 0.964 for the first, 0.934 for the second.

First: LU99A
Second: BEN
The relative viability of the first is lower: 0.381 for the first, 0.489 for the second.

First: HARA
Second: SW 900
The relative viability of the first is lower: 0.277 for the first, 0.477 for the second.

For HCC-78, the relative viability was 0.505.

same assay, conditions: first compound 2.53 µM

Compared with NCI-H2342, NCI-H727 is higher in relative viability: 0.6 for the first, 0.634 for the second.

Compared with NCI-H1650, NCI-H1993 is higher in relative viability: 0.328 for the first, 0.687 for the second.

First: SW 1573
Second: NCI-H838
The relative viability of the first is higher: 0.38 for the first, 0.249 for the second.

Going from LCLC-103H to NCI-H520, the relative viability falls from 0.487 to 0.237.

Compared with NCI-H2126, EMC-BAC-2 is higher in relative viability: 0.36 for the first, 0.519 for the second.

First: NCI-H2085
Second: HCC-366
The relative viability of the first is higher: 0.486 for the first, 0.391 for the second.

Compared with NCI-H1666, LK-2 is higher in relative viability: 0.668 for the first, 0.77 for the second.

First: NCI-H2087
Second: SK-MES-1
The relative viability of the first is lower: 0.215 for the first, 0.318 for the second.

Going from H3255 to COR-L23, the relative viability falls from 0.344 to 0.299.

First: COR-L 105
Second: LOU-NH91
The relative viability of the first is lower: 0.426 for the first, 0.559 for the second.

Compared with ChaGo-K-1, NCI-H2170 is lower in relative viability: 0.903 for the first, 0.438 for the second.

Going from NCI-H2405 to HOP-62, the relative viability falls from 0.575 to 0.513.

Going from HCC-44 to NCI-H522, the relative viability falls from 1.01 to 0.849.

Going from LU99A to BEN, the relative viability rises from 0.435 to 0.458.

Compared with HARA, SW 900 is higher in relative viability: 0.221 for the first, 0.648 for the second.

For HCC-78, the relative viability was 0.45.

same assay, conditions: first compound 8 µM

First: NCI-H2342
Second: NCI-H727
The relative viability of the first is lower: 0.542 for the first, 0.694 for the second.

Going from NCI-H1650 to NCI-H1993, the relative viability rises from 0.308 to 0.763.

First: SW 1573
Second: NCI-H838
The relative viability of the first is lower: 0.0522 for the first, 0.26 for the second.

Compared with LCLC-103H, NCI-H520 is lower in relative viability: 0.433 for the first, 0.212 for the second.

Going from NCI-H2126 to EMC-BAC-2, the relative viability rises from 0.327 to 0.537.

Compared with NCI-H2085, HCC-366 is lower in relative viability: 0.463 for the first, 0.325 for the second.

Compared with NCI-H1666, LK-2 is higher in relative viability: 0.645 for the first, 0.721 for the second.

Going from NCI-H2087 to NCI-H1648, the relative viability rises from 0.191 to 0.301.

Compared with SK-MES-1, H3255 is lower in relative viability: 0.342 for the first, 0.313 for the second.

Compared with COR-L23, COR-L 105 is lower in relative viability: 0.39 for the first, 0.384 for the second.

Going from LOU-NH91 to ChaGo-K-1, the relative viability rises from 0.558 to 0.853.

First: NCI-H2170
Second: NCI-H2405
The relative viability of the first is lower: 0.402 for the first, 0.513 for the second.

Compared with HOP-62, HCC-44 is higher in relative viability: 0.499 for the first, 0.975 for the second.

Compared with NCI-H522, LU99A is lower in relative viability: 0.923 for the first, 0.42 for the second.

Compared with BEN, HARA is lower in relative viability: 0.448 for the first, 0.245 for the second.

First: SW 900
Second: HCC-78
The relative viability of the first is higher: 0.579 for the first, 0.466 for the second.
